Measured values published in patent publication US20180273579A1, “COMPOUNDS WITH HIV MATURATION INHIBITORY ACTIVITY” (priority 2015, published 2018).
Counter-ions that a name gives are not always drawn.

How the values were obtained:
[1] = test system: NL4-3 wt; assay: MT4 Cell Antiviral Assay (NL4-3 wt); assay type: cell-based, HIV-1; conditions: Human immunodeficiency virus 1, NL43, HIV MT4 Antiviral Cell Assay
[2] = test system: V370A; assay: MT4 Cell Antiviral Assay (V370A); assay type: cell-based, HIV-1; conditions: Human immunodeficiency virus 1, MT4, read-out: EC50 V370A (nM)
[3] = test system: HIV; conditions: cited from earlier work
[4] = test system: HIV-1 (strain IIIB); assay: MT4 Cell Antiviral Assay (general statement, control); assay type: cell-based; conditions: Human immunodeficiency virus 1, IIIB, control and standard in every assay, propidium iodide readout, read-out: expected range of IC50 values
Protocol: Antiviral HIV activity and compound-induced cytotoxicity were measured in parallel by means of a propidium iodide based procedure in the human T-cell lymphotropic virus transformed cell line MT4. Aliquots of the test compounds were serially diluted in medium (RPMI 1640, 10% fetal calf serum (FCS), and gentamycin) in 96-well plates (Costar 3598) using a Cetus Pro/Pette. Exponentially growing MT4 cells were harvested and centrifuged at 1000 rpm for 10 min in a Jouan centrifuge (model CR 4 12). Cell pellets were resuspended in fresh medium (RPMI 1640, 20% FCS, 20% IL-2, and gentamycin) to a density of 5×10^5 cells/ml. […]
For propidium iodide readout, 27 μl of 5% Nonidet-40 was added to each well of the incubation plate. […] The plates were analyzed in an automated assay instrument (Screen Machine, Idexx Laboratories). […]
For MTS readout, 20 μl CellTiter 96 AQ One Solution reagent (Promega #G3582) was added to each well. At 75 minutes following the addition of MTS reagent, absobance was read at 492 nm using a Tecan Sunrise 96-well plate reader. […]
For each assay plate, the results (relative fluorescence units, rfU, or OD values) of wells containing uninfected cells or infected cells with no compound were averaged, respectively. […] Percent of cells remaining is determined by the following formula: […]

With `CC(C)C1=C2[C@H]3CC[C@@H]4[C@@]5(C)CC=C(c6ccc(C(=O)O)cc6)C(C)(C)[C@@H]5CC[C@@]4(C)[C@]3(C)CC[C@@]2(C(=O)N(CCN(C)C)[C@H](C)c2ccc(Cl)cc2)CC1=O` [Example 7, 4-((3aR,5aR,5bR,7aR,11aS,11bR,13aS)-3a-(((R)-1-(4-Chlorophenyl)ethyl) (2-(dimethylamino)ethyl)carbamoyl)-1-isopropyl-5a,5b,8,8,11a-pentamethyl-2-oxo-3,3a,4,5,5a,5b,6,7,7a,8,11,11a,11b,12,13,13a-hexadecahydro-2H-cyclopenta[a]chrysen-9-yl)benzoic acid hydrochloride] the EC50 [1] was 8.5 nM and the EC50 [2] was 8.9 nM.

With `CC(C)C1=C2[C@H]3CC[C@@H]4[C@@]5(C)CC=C(C6=CCC(C(=O)O)CC6)C(C)(C)[C@@H]5CC[C@@]4(C)[C@]3(C)CC[C@@]2(C(=O)N(CCN(C)C)[C@H](C)c2ccc(Cl)cc2)CC1=O` (stereo partly drawn) [Example 5, 4-((3aR,5aR,5bR,7aR,11aS,11bR,13aS)-3a-(((R)-1-(4-Chlorophenyl)ethyl) (2-(dimethylamino)ethyl)carbamoyl)-1-isopropyl-5a,5b,8,8,11a-pentamethyl-2-oxo-3,3a,4,5,5a,5b,6,7,7a,8,11,11a,11b,12,13,13a-hexadecahydro-2H-cyclopenta[a]chrysen-9-yl)cyclohex-3-enecarboxylic acid] the EC50 [1] was 7.6 nM and the EC50 [2] was 9.5 nM.

Molecule `CC(C)C1=C2[C@H]3CC[C@@H]4[C@@]5(C)CC=C(C6=CCC(C(=O)O)CC6)C(C)(C)[C@@H]5CC[C@@]4(C)[C@]3(C)CC[C@@]2(C(=O)NCCN2CCC(S(C)(=O)=O)CC2)CC1=O` (stereo partly drawn) [Example 1, 4-((3aR,5aR,5bR,7aR,11aS,11bR,13aS)-1-Isopropyl-5a,5b,8,8,11a-pentamethyl-3a-((2-(4-(methylsulfonyl)piperidin-1-yl)ethyl)carbamoyl)-2-oxo-3,3a,4,5,5a,5b,6,7,7a,8,11,11a,11b,12,13,13a-hexadecahydro-2H-cyclopenta[a]chrysen-9-yl)cyclohex-3-enecarboxylic acid] has an EC50 [1] of over 23900 nM and an EC50 [2] of over 25000 nM.

With `CC(C)C1=C2[C@H]3CC[C@@H]4[C@@]5(C)CC=C(C6=CCC(C(=O)O)CC6)C(C)(C)[C@@H]5CC[C@@]4(C)[C@]3(C)CC[C@@]2(C(=O)NCCN2CCS(=O)(=O)CC2)CC1=O` (stereo partly drawn) [Example 2, 4-((3aR,5aR,5bR,7aR,11aS,11bR,13aS)-3a-((2-(1,1-Dioxidothiomorpholino)ethyl)carbamoyl)-1-isopropyl-5a,5b,8,8,11a-pentamethyl-2-oxo-3,3a,4,5,5a,5b,6,7,7a,8,11,11a,11b,12,13,13a-hexadecahydro-2H-cyclopenta[a]chrysen-9-yl)cyclohex-3-enecarboxylic acid] the EC50 [1] was 3390 nM and the EC50 [2] was over 25000 nM.

For `C=C(C)[C@@H]1CC[C@]2(C(=O)O)CC[C@]3(C)[C@H](CC[C@@H]4[C@@]5(C)CC[C@H](OC(=O)CC(C)(C)C(=O)O)C(C)(C)[C@@H]5CC[C@]43C)[C@@H]12` [Bevirimat], the “reduced HIV viral load, mean” value ([3]; patients with trough levels >=20 μg/mL and without key baseline Gag polymorphisms at Q369, V370 or T371) is listed as 1.3 log10/mL and the viral load reduction ([3]; users with Gag polymorphisms at Q369, V370 or T371, versus patients without them) is listed as “significantly lower load reductions”.

Work on `CC(C)C1=C2[C@H]3CC[C@@H]4[C@@]5(C)CC=C(c6ccc(C(=O)O)cc6)C(C)(C)[C@@H]5CC[C@@]4(C)[C@]3(C)CC[C@@]2(C(=O)N(CCN(C)C)Cc2ccc(Cl)cc2)CC1=O` [Example 8, 4-((3aR,5aR,5bR,7aR,11aS,11bR,13aS)-3a-((4-Chlorobenzyl) (2-(dimethylamino)ethyl)carbamoyl)-1-isopropyl-5a,5b,8,8,11a-pentamethyl-2-oxo-3,3a,4,5,5a,5b,6,7,7a,8,11,11a,11b,12,13,13a-hexadecahydro-2H-cyclopenta[a]chrysen-9-yl)benzoic acid hydrochloride] yielded an EC50 [1] of 28.8 nM and an EC50 [2] of 64.6 nM.

For `Cc1cn([C@H]2C[C@H](N=[N+]=[N-])[C@@H](CO)O2)c(=O)[nH]c1=O` [3′-azido-3′-deoxythymidine], the IC50 [4] was 40 to 120 nM.

`CC(C)C1=C2[C@H]3CC[C@@H]4[C@@]5(C)CC=C(C6=CCC(C(=O)O)CC6)C(C)(C)[C@@H]5CC[C@@]4(C)[C@]3(C)CC[C@@]2(C(=O)N(CCN(C)C)Cc2ccc(Cl)cc2)CC1=O` (stereo partly drawn) [Example 6, 4-((3aR,5aR,5bR,7aR,11aS,11bR,13aS)-3a-((4-Chlorobenzyl) (2-(dimethylamino)ethyl)carbamoyl)-1-isopropyl-5a,5b,8,8,11a-pentamethyl-2-oxo-3,3a,4,5,5a,5b,6,7,7a,8,11,11a,11b,12,13,13a-hexadecahydro-2H-cyclopenta[a]chrysen-9-yl)cyclohex-3-enecarboxylic acid] showed an EC50 [1] of 11.2 nM and an EC50 [2] of 14.1 nM.
